# Patent publication US7638119B2, “Method of diminishing the symptoms of neurodegenerative disease” (priority 2004, dated 2009)
# Where two headings read alike, the source gives them in different places.
# Experiments:
# [1] = system: Nrf2−/−, +/− and +/+ mice; conditions: for Average lesion size: 0.5M malonate 1 μl intrastriatal, cresyl violet
# Method: (§1) Mice were anesthetized with isoflurane. […] One minute after insertion of the Hamilton syringe, the solution was administered over 2 minutes and the needle was withdrawn 2 mm per minute. ARE-hPAP+ mice were injected similarly with 0.25M (1 μl), due to differences in background strain sensitivity.
# (§2) Mice were euthanized with CO2 and perfused with 4% paraformaldehyde. Tissues were post-fixed overnight at 4° C. and cryoprotected in 30% sucrose/PBS. Using a cryostat (Leica), adjacent coronal 20 μm and 50 μm sections were taken for staining with Fluorojade-B and cresyl violet respectively through the entire striatum. […] Lesion size was quantified using the Cavieleri Estimator (Stereoinvestigator; Microbrightfield) on sections 200 μm apart. HPAP histochemistry was measured as previously described (Johnson, D. A., et al., supra, 2002).
# Ten days post-injection mice were sacrified and lesion size was measured by cresyl violet staining (FIG. 4A).
# [2] = system: antioxidant response element (ARE); experiment: hPAP histochemistry after intrastriatal malonate in ARE-hPAP reporter mice; assay type: in vivo, mouse; conditions: 48 hours after intrastriatal malonate
# Method: as §1, §2
# Malonate was injected intrastriatally into ARE-hPAP reporter mice. After 48 hours the mice were euthanized and hPAP histochemistry was performed. […] ARE-activated astrocytes, as visualized by GFAP immunohistochemistry, occur in a similar pattern (FIG. 5C).
# [3] = system: antioxidant response element (ARE); experiment: hPAP reporter activation after 3NP in ARE-hPAP primary neuronal cultures; assay type: cell-based, mouse; conditions: ARE-hPAP+ primary cortical neuronal cultures, neurotoxic doses, 48 hours
# From the text: Nrf2−/− and ARE-hPAP transgenic reporter mice were bred separately. Nrf2−/− mice were created by targeted disruption of the Nrf2 gene (Chan, K., et al., Proc. Natl. Acad. Sci. USA 93:13943-13948, 1996). ARE-hPAP reporter mice were created by insertion of a 51 basepair segment of rat NAD(P)H Quinone Oxidoreductase-1 promoter containing the core ARE into a minimal promoter upstream of the heat stable human Placental Alkaline Phosphatase (hPAP) (Johnson, D. A., et al., J. Neurochem. 81:1233-1241, 2002).
# (§3) For primary cortical neuronal cultures, Nrf2+/− mice were bred and cultures were prepared from individual E15/16 embryos as previously described (Lee, J. M., et al., supra, 2003). Treatments were applied between day 3 and 5 in vitro. Immunostaining for β-III-tubulin and GFAP confirmed no difference in the ratio of neurons to astrocytes between genotypes (data not shown). HPAP+ cultures were prepared similarly. HPAP activity and histochemistry in primary cultures was measured as previously described (Johnson, D. A., et al., supra, 2002).
# This activation was localized to the surviving astrocytes (FIG. 2B) as visualized by vector red staining and GFAP co-labeling.
# Nrf2−/−, +/− or +/+ mice [4] = experiment: Rotarod performance after 3NP; assay type: in vivo, mouse; conditions: Nrf2−/− mice versus 3NP-injected Nrf2+/+ and heterozygous mice, four hours after last dose, 5 rpm
# Method: To assess sensorimotor deficits in 3NP-treated animals, mice were trained up to 5 times per day on the rotarod (Columbus Instruments) for three days prior to 3-NP administration (Fernagut, P. O., et al., Neuroscience 114:1005-1017, 2002). All mice were able to achieve 180 sec (5 rpm) on the first trial by day three. Rotarod function was measured prior to the first dose and following the last dose of 3-NP.
# Four hours after the last dose, motor skills were assessed by rotarod performance. Up to three trials were given for each mouse and the longest time spent on the rotarod was used for analysis. All PBS-injected mice were able to maintain 5 rpm for 180 sec (the maximum time allowed).
# [5] = system: Nrf2+/+ and −/− primary cortical neuronal cultures; experiment: LDH release cytotoxicity in primary neuronal cultures treated with 3NP; assay type: cell-based, mouse; conditions: Nrf2−/− versus wild-type cultures, all doses, treated for 48
# Method: as §3
# (§4) LDH release into medium was measured using the CytoTox96 Non-Radioactive Cytotoxicity Assay kit (Promega) according to the manufacturers instructions. LDH activity was measured on both media and lysed cells. After normalizing to non-treated wells, the percentage of LDH in the media was calculated. Each measurement was made in at least triplicate on separate cultures from three individual pups. Terminal deoxynucleotidyltransferase-mediated dUTP nick end labeling (TUNEL; Roche Applied Science) staining was also performed according to the manufacturers instructions on cultures from at least two different pups per genotype.
# (§5) In order to examine the differential sensitivity of Nrf2−/− neurons to complex II inhibition, Nrf2+/+ and −/− primary cortical neuronal cultures (3 DIV) were treated with 3NP for 48 and assessed for LDH release. […]
# [6] = system: Nrf2+/+ and −/− primary cortical neuronal cultures; experiment: TUNEL staining of primary neuronal cultures treated with 3NP; assay type: cell-based, mouse; conditions: 2 mM 3NP, visual inspection
# Method: as §3, §4, §5
# Nrf2−/−, +/− or +/+ mice [7] = experiment: Systemic 3NP administration: phenotypic scoring, death and weight loss; assay type: in vivo, mouse
# Method: (§6) Nrf2−/−, +/−, or +/+ mice received i.p. injections of 50 mg/kg 3NP or vehicle every 12 hours for a total of 7 injections. 25 mg/ml 3-NP in PBS was prepared fresh and adjusted to pH 7.4 with 10M NaOH. Individual doses were diluted so that injection volume remained constant at 200 μl. Six to eight hours after the last dose mice were sacrificed as below. One Nrf2 KO mouse died prior to the seventh dose and three others had severe symptoms that were classified as stage III according to Gabrielson, et al. (Gabrielson, K. L., et al., Am. J. Pathol. 159:1507-1520, 2001).
# We posited that this increased sensitivity would also extend to an in vivo model. 18 week-old mice were dosed every 12 hours with 50 mg/kg 3NP. After seven doses, a clear differential sensitivity had emerged based on the subjective classification described by Gabrielson, et al. (Gabrielson, K. L., et al., supra, 2001). […] No Nrf2+/+ or Nrf2+/− mice rated above stage 1.
# Table 1: Phenotypic scoring of mice after 3NP administration. Nrf2+/+, Nrf2+/− and Nrf2−/− mice were scored Stage 0, I, II or III based on the development of clinical symptoms.
# Nrf2−/−, +/− or +/+ mice [8] = experiment: Striatal lesions after 3NP (Fluorojade-B, cresyl violet); assay type: in vivo, mouse
# Method: as §6, §2
# After mice were sacrificed, brains were stained with cresyl violet or Fluorojade-B (FIG. 3C). Lesions in Nrf2−/− mice were observable using both staining methods; however, they were more apparent in the fluorojade B-stained sections; these sections were used for lesion volume quantification (FIG. 3D).
# [9] = Nrf2−/− mice, 50 mg/kg i.p. every 12 hours, 7 injections
compound,measurement,setting,value
O=C(O)CC(=O)O [malonate],Average lesion size,"[1]; Nrf2+/+ mice, ten days post-injection",0.03±0.07 mm^3
same,Average lesion size,"[1]; Nrf2+/− mice, ten days post-injection",0.16±0.07 mm^3
same,Increase of average lesion size,[1]; Nrf2−/− versus Nrf2+/+ mice,over 21 fold
same,Increase of average lesion size,[1]; Nrf2−/− versus Nrf2+/− mice,4 fold
same,Overt behavioral phenotype,"[1]; all genotypes, ten days post-injection",None of the mice exhibited an overt behavioral phenotype
same,hPAP activity,[2],present near the edges of the lesion
"O=C(O)CC[N+](=O)[O-] [3NP, 3-nitropropionic acid]",hPAP expression,[3],significantly increased
same,Rotarod function,"Nrf2−/−, +/− or +/+ mice [4]",significantly reduced function
same,LDH release,[5],greater in the Nrf2−/− cultures than in wild-type cultures
same,TUNEL-positive neurons,[6]; Nrf2+/+ neurons,significantly lower percentage
same,TUNEL-positive neurons,[6]; Nrf2−/− neurons,Nearly all
same,Mice scored Stage 0,"Nrf2−/−, +/− or +/+ mice [7]; Nrf2+/+ mice, 50 mg/kg i.p. every 12 hours, 7 injections",5
same,Mice scored Stage 0,"Nrf2−/−, +/− or +/+ mice [7]; Nrf2+/− mice, 50 mg/kg i.p. every 12 hours, 7 injections",4
same,Mice scored Stage 0,"Nrf2−/−, +/− or +/+ mice [7]; [9]",1
same,Mice scored Stage I,"Nrf2−/−, +/− or +/+ mice [7]; [9]",3
same,Mice scored Stage II,"Nrf2−/−, +/− or +/+ mice [7]; [9]",1
same,"Weight loss, percent of starting weight","Nrf2−/−, +/− or +/+ mice [7]; Nrf2−/− mice, after seven doses of 50 mg/kg",12±1.9%
same,Death,"Nrf2−/−, +/− or +/+ mice [7]; Nrf2−/− mice, prior to the seventh dose of 50 mg/kg",one mouse died
same,Mice with measurable lesions,"Nrf2−/−, +/− or +/+ mice [8]; Nrf2+/+ mice",No lesions
same,Mice with measurable lesions,"Nrf2−/−, +/− or +/+ mice [8]; Nrf2+/− mice",only one
same,Mice with measurable lesions,"Nrf2−/−, +/− or +/+ mice [8]; Nrf2−/− mice",Five of the eight
